The results in this text go back to US20260355180A1, “COMPOSITIONS AND METHODS FOR SPLICEOSOME-TARGETED THERAPIES” (Institute for Cancer Research d/b/a The Research Institute …, priority 2022, published 2026).

The test system of one data set is WT MEF cells. Kind of data set: Survival of PlaB treated MEF WT. The class given is cell-based, mouse. The protocol:
(§1) FIG. 16: Analysis of the effect of spliceosome inhibition on necroptosis in WT MEF cells. EV refers to cells treated with an empty vector.
(§2) Since induction of Z-nAs can result in ZBP1-dependent necroptosis, we analyzed induction of necroptosis in necroptotic competent MEFs using spliceosome inhibition. […] We also determined that MEFs ΔZBP1, WT, and Flag-ZBP1 cells treated with PlaB began dying within 24hours after treatment. With MEF Flag-ZBP1 cells showing only 20% survival after 24 hours (FIG. 16).

In data set [1] the test system is H446 SCLC cells. Kind of data set: Cell survival after PlaB treatment, H446. The class given is cell-based, human. The protocol:
(§3) FIG. 2A) SCLC cell lines (H446 and H82) and immortalized fibroblasts (FC1010 and HS68) cell survival curves after 72 hours of PlaB treatment. FIG. 2B) RIPK1 depletion rescues H82 and H446 cell survival after 18 hours of PlaB treatment. FIG. 2C) Western blot showing RIPK1 protein depletion. Mean±SEM, Welch's t test *p<0.05, **p<0.01.
(§4) Cancer deregulates splicing^31,32, and we hypothesized that hyper-proliferative SCLCs are dependent on splicing machineries for increased tumorigenicity^90.

The test system of the next data set is MEF Flag-ZBP1 cells. Kind of data set: Survival of PlaB treated MEF Flag-ZBP1. The data set is classed as cell-based, mouse. The protocol: as §1, §2
Another data set deals with MEF ΔZBP1 cells. Kind of data set: pMLKL western blot / necroptosis, MEF ΔZBP1. The data set is classed as cell-based, mouse. The note with it: 2.5 nM PlaB, 18 hours. The protocol: (§5) FIG. 5A-5E: SF3B1 perturbation upregulates A-RNA and Z-nucleic acids in MEFs. (FIG. 5A) 5 nM of PlaB induces A-RNA and Z-Nucleic acids in ΔZBP1 MEF cells. (FIG. 5B) Quantification of A-RNA and Z-Nucleic acids. […] Plots of signal intensity are mean±SEM, two-tailed unpaired Student's t test *p<0.05, ***p<0.001, ****p<0.0001. 18 hours of PlaB treatment for IF, WB and rescue experiments. IF: 5 nM PlaB, WB and rescue experiments: 2.5 nM PlaB.
as §2

In the next data set the test system is RPP631 cells in mice. Put plainly: Combination therapy with PlaB and αPD-1 in mice, tumor size. The data set is classed as in vivo. Particulars: PlaB intra-tumorally and αPD-1 intra-peritoneally, days 14, 17, 20, 22; vs IgG or anti-PD1 only; 24 days. The protocol:
FIG. 17: Analysis of combination therapy in mouse model using PlaB and αPD-1.
This combination therapy was tested in RPP631 cells in mice. At day 0, the mice were injected with 8×10^6 RPP631 cells. At days 14, 17, 20, and 22, the mice were injected with PlaB or a vehicle intra-tumorally and IgG or αPD-1 intra-peritoneally. The tumors were then measured over 24 days. (FIG. 17).

In another data set the test system is RPPM631 cells. Kind of data set: A-RNA and Z-NA accumulation in RPPM631 cells. The data set is classed as cell-based, mouse. Particulars: 25 nM PLAB. The protocol: Additionally, SF3B1 inhibition was directly compared to SF3B1 knockout in the mouse SCLC cell line RPPM631. RPPM631 cells were treated with 25 nM PLAB and analyzed for their accumulation of Z-NA and A-RNA. […] (FIG. 12) Next, SF3B1-KO RPPM631 cells were generated and analyzed using immunc-fluorescence technique.

The test system of data set [2] is MEF ΔZα cells. Put plainly: A-RNA and Z-NA accumulation in MEF ΔZα. The data set is classed as cell-based, mouse. The note with it: SF3B1 inhibition.
Another data set has as its system MEF cells. Kind of data set: A-RNA and Z-NA in MEF after PlaB with or without nucleases. The class given is cell-based, mouse. As for the experimental part: FIG. 11A-11B: Analysis of Z-NA and A-RNA sources. (FIG. 11A) […] A-Nucleic acid accumulation in MEF cells after treatment with PlaB with or without Dnasel, RnaseA, or Rnase H. (FIG. 11B) Quantification of A-RNA and Z-Nucleic acids in treated cells. MEF EV refers to MEF cells treated with an empty vector.
The increases in A-RNA and Z-NA was further analyzed in MEF cells. Cells were treated with PlaB alone, or in combination with dNasel (dsDNA), rNaseA(dsRNA at [high]), or […] (DNA/RNA hybrid). […] (FIG. 11A-11B).

Data set [3] relates to MEF ΔZα cells. Put plainly: pMLKL western blot / necroptosis, MEF ΔZα. Particulars: 2.5 nM PlaB, 18 hours. The data set is classed as cell-based, mouse. The protocol:
as §5, §2
In general terms: A western blot detects proteins with antibodies after separation by electrophoresis.

Data set [4] relates to H446 SCLC cells. Put plainly: Antigen (HLA-ABC) and PD-L1 expression, H446. The data set is classed as cell-based, human. Particulars: 48 hours of 0.5 nM PlaB. The text has this:
(§6) FIG. 3A-3D: SF3B1 inhibition induces a potent IFN response and increases expression of IFN-regulated proteins. […] Mean±SEM, two-tailed unpaired Student's t test *p<0.05, **p<0.01, ***p<0.001, ****p<0.0001.
(§7) We also observed that SF3B1 inhibition triggers robust anti-tumor response and upregulates IFN-β, IFN-γ, and IFN-responsive genes by real-time reverse-transcription quantitative polymerase chain reaction (rRT-qPCR) in H446 and H82 cells (FIGS. 3A and 3B). […] These observations indicate that spliceosome inhibition is useful as a targeted therapy for SCLCs.

Data set [5] has as its system H82 SCLC cells. Kind of data set: IFN response by rRT-qPCR, H82. The data set is classed as cell-based. The note with it: dose-dependent.
Excerpt: as §6, §7
In general terms: Quantitative PCR measures a nucleic acid by following its amplification.

The test system of a further data set is wild type RPPM631 cells. Kind of data set: Viability of wild type RPPM631 cells. The class given is cell-based, mouse. The note with it: PlaB. The text has this:
Next, we prepared ZBP1-KO RPPM631 cells to determine whether the necroptosis was ZBP-1 dependent.

Data set [6] has as its system H82 SCLC cells. Kind of data set: Cell survival after PlaB treatment, H82. The data set is classed as cell-based. The protocol:
as §3, §4

A further data set deals with H82 cells. Kind of data set: MAVS knock out rescue of PlaB-mediated cell death, H82. The class given is cell-based. The note with it: MAVS KO H82; data not shown. From the text: Currently, ZBP1 and ADAR1 are the only two known proteins harbor Zα and interact with Z-NAs^104-109.
Setting [7] is: nanomolar concentration of PlaB.
Setting [8] is: PlaB and dNasel, rNaseA, or RnaseH.

“Also recorded” adds a separate entry of the source. A value given as a limit tells only on which side of the number the result lay.

Take `CCC(O)C(C)C1OC1CC(C)C=CC=C(C)C1OC(=O)CC(O)CCC(C)(O)C(OC(C)=O)C=CC1C` (stereo not shown) [PlaB, Pladienolide B]: the “time after treatment at which cells began dying” value with WT MEF cells and in the data set with MEF Flag-ZBP1 cells (MEF Flag-ZBP1) was at most 24 h in each case. Further, the cell survival entry was “drastically reduces cell survival; also recorded: dramatically reduces SCLC cell survival” in the data set with H446 SCLC cells [1] (72 hours of PlaB, H446) and “drastically reduces cell survival; also recorded: dramatically reduces SCLC cell survival” in the data set on H82 SCLC cells [6] (72 hours of PlaB, H82). Besides, the “sensitivity to SF3B1 inhibition” value in the data set with H446 SCLC cells [1] (setting [7]) and in the data set on H82 SCLC cells [6] (setting [7]) was “particularly sensitive” throughout. The molecule further showed a survival in the data set with MEF Flag-ZBP1 cells (MEF Flag-ZBP1, after 24 hours) of 20%. Besides, the “pMLKL (necroptosis)” value in the data set with MEF ΔZBP1 cells and with MEF ΔZα cells [3] (MEF ΔZα) was “not triggered” each time. Moreover, in the data set on RPP631 cells in mice, the tumor size result was “significantly reduced tumor size”. Besides, the A-RNA accumulation result in the data set on RPPM631 cells is “increase”. Also, the Z-NA accumulation entry in the data set on RPPM631 cells is “increase”. The “A-RNA and Z-NA accumulation” value in the data set on MEF ΔZα cells [2] is on record as “accumulation”. For the same molecule, the “A-RNAs and Z-nAs” value in the data set with MEF cells (PlaB alone) is “increase in both A-RNAs and Z-nAs”; in the data set on MEF cells (setting [8]), “still showed an increase in A-RNAs and Z-nAs”. Besides, in the data set with MEF cells (setting [8]), the “increase in A-RNAs relative to PlaB alone” value is listed as “not as robust as PlaB alone”. Besides, in the data set on MEF ΔZα cells [3] (MEF ΔZα mutant), the PlaB-mediated necroptosis entry was “avoid PlaB-mediated necroptosis”. For the same molecule, the PD-L1 expression entry with H446 SCLC cells [4] is listed as “effectively upregulates”. Also, the antigen expression entry in the data set with H446 SCLC cells [4] was “effectively upregulates”. The IFN response entry in the data set with H82 SCLC cells [5] is “induces potent IFN response”. The viability result in the data set on wild type RPPM631 cells is “significant decrease in viability”. In addition, the “rescue of PlaB-mediated cell death by MAVS knock out” value in the data set on H82 cells is “only minimally rescue”.
